In US20230233576A1, “ECLITASERTIB FOR USE IN TREATING CONDITIONS INVOLVING SYSTEMIC HYPERINFLAMMATORY RESPONSE” (priority 2020, published 2023):

Tested on: adult participants hospitalized for severe COVID-19
Test: Phase 1b severe COVID-19 study: adverse events and deaths
Assay type: in vivo, human
From the text: Safety evaluation was based on adverse events (Aes) including serious adverse events (SAEs) and adverse events of special interest (AESIs) (i.e., pregnancy, symptomatic overdose with IMP. Alanine aminotransferase [ALT] increase, and anemia), and treatment-emergent adverse events (TEAEs) leading to treatment discontinuation.
The primary focus of AE reporting was on treatment emergent adverse events (TEAEs). Treatment emergent adverse events were Aes that were not present at baseline or represented the exacerbation of a pre-existing condition during the on-treatment period (treatment-emergent period), defined as the time from the first administration of the IMP up to and including the day of last dose of study drug plus 5 days.
All adverse events were coded to a “preferred term (PT)”, “high-level term (HLT)”, “high-level group term (HLGT)”, and associated primary SOC using Medical Dictionary for Regulatory Activities (MedDRA) version 23.1.
The number and cumulative incidence rate of deaths [%] during the on-study period were computed by treatment group: number of deaths divided by the number of participants. Kaplan-Meier plot for time to death was presented by treatment group.

[1] = 600 mg (N = 47), Safety population
[2] = 600 mg (N = 47), Safety population, corresponds to worsening of COVID-19
[3] = 600 mg, Safety population (N = 47)
[4] = 600 mg, Study day 0, Safety population
[5] = 600 mg, Study day 13, Safety population
[6] = 600 mg, Study day 15, Safety population
[7] = 600 mg, Study day 27, Safety population
[8] = 600 mg, Study day 28, Safety population
[9] = 600 mg, Study day 29, Safety population
[10] = 600 mg, Study day 30, Safety population
[11] = 600 mg, Study day 31, Safety population
[12] = 600 mg, Study day 33, Safety population
[13] = 600 mg, Study day 42, Safety population
[14] = 600 mg, Study day 60, Safety population
[15] = post-treatment period, 600 mg (N = 47), safety population
[16] = pre-treatment emergent adverse events, 600 mg group (N = 47), safety population

## CN1C(=O)[C@@H](NC(=O)c2nnc(Cc3ccccc3)[nH]2)COc2cccnc21 [RIPK1 Inhibitor, (S)-5-benzyl-N-(5-methyl-4-oxo-2,3,4,5-tetrahydropyrido[3,2-b][1,4]oxazepin-3-yl)-4H-1,2,4-triazole-3-carboxamide]
[1]
  TEAE, PT Pulmonary embolism: percentage of participants: (2.1) %
  TEAE, PT Pyrexia: number of participants: 1
  TEAE, PT Pyrexia: percentage of participants: (2.1) %
  TEAE, PT Renal cyst: number of participants: 0
  TEAE, PT Renal impairment: number of participants: 0
  TEAE, PT Respiratory disorder: number of participants: 1
  TEAE, PT Respiratory disorder: percentage of participants: (2.1) %
  TEAE, PT Respiratory failure: number of participants: 0
  TEAE, PT Subcutaneous emphysema: number of participants: 0
  TEAE, PT Tachycardia paroxysmal: number of participants: 0
  TEAE, PT Tracheitis: number of participants: 0
  TEAE, PT Tracheobronchitis: number of participants: 0
  TEAE, PT Transaminases increased: number of participants: 0
  TEAE, PT Venous thrombosis limb: number of participants: 1
  TEAE, PT Venous thrombosis limb: percentage of participants: (2.1) %
  TEAE, PT Vessel puncture site phlebitis: number of participants: 1
  TEAE, PT Vessel puncture site phlebitis: percentage of participants: (2.1) %
  TEAE, PT Vomiting: number of participants: 0
  TEAE, SOC BLOOD AND LYMPHATIC SYSTEM DISORDERS: number of participants: 1
  TEAE, SOC BLOOD AND LYMPHATIC SYSTEM DISORDERS: percentage of participants: (2.1) %
  TEAE, SOC CARDIAC DISORDERS: number of participants: 0
  TEAE, SOC GASTROINTESTINAL DISORDERS: number of participants: 6
  TEAE, SOC GASTROINTESTINAL DISORDERS: percentage of participants: (12.8) %
  TEAE, SOC GENERAL DISORDERS AND ADMINISTRATION SITE CONDITIONS: number of participants: 6
  TEAE, SOC GENERAL DISORDERS AND ADMINISTRATION SITE CONDITIONS: percentage of participants: (12.8) %
  TEAE, SOC HEPATOBILIARY DISORDERS: number of participants: 0
  TEAE, SOC IMMUNE SYSTEM DISORDERS: number of participants: 1
  TEAE, SOC IMMUNE SYSTEM DISORDERS: percentage of participants: (2.1) %
  TEAE, SOC INFECTIONS AND INFESTATIONS: number of participants: 4
  TEAE, SOC INFECTIONS AND INFESTATIONS: percentage of participants: (8.5) %
  TEAE, SOC INJURY, POISONING AND PROCEDURAL COMPLICATIONS: number of participants: 1
  TEAE, SOC INJURY, POISONING AND PROCEDURAL COMPLICATIONS: percentage of participants: (2.1) %
  TEAE, SOC INVESTIGATIONS: number of participants: 6
  TEAE, SOC INVESTIGATIONS: percentage of participants: (12.8) %
  TEAE, SOC METABOLISM AND NUTRITION DISORDERS: number of participants: 3
  TEAE, SOC METABOLISM AND NUTRITION DISORDERS: percentage of participants: (6.4) %
  TEAE, SOC MUSCULOSKELETAL AND CONNECTIVE TISSUE DISORDERS: number of participants: 1
  TEAE, SOC MUSCULOSKELETAL AND CONNECTIVE TISSUE DISORDERS: percentage of participants: (2.1) %
  TEAE, SOC NERVOUS SYSTEM DISORDERS: number of participants: 0
  TEAE, SOC PSYCHIATRIC DISORDERS: number of participants: 1
  TEAE, SOC PSYCHIATRIC DISORDERS: percentage of participants: (2.1) %
  TEAE, SOC RENAL AND URINARY DISORDERS: number of participants: 0
  TEAE, SOC REPRODUCTIVE SYSTEM AND BREAST DISORDERS: number of participants: 0
  TEAE, SOC RESPIRATORY, THORACIC AND M[…]: number of participants: 4
  TEAE, SOC RESPIRATORY, THORACIC AND M[…]: percentage of participants: (8.5) %
  TEAE, SOC SKIN AND SUBCUTANEOUS TISSUE DISORDERS: number of participants: 0
  TEAE, SOC VASCULAR DISORDERS: number of participants: 3
  TEAE, SOC VASCULAR DISORDERS: percentage of participants: (6.4) %
[2]
  TEAE, PT Condition aggravated: number of participants: 4
  TEAE, PT Condition aggravated: percentage of participants: (8.5) %
[3]
  deaths up to Day 28: 4.3%
  number of AESIs: 6 AESIs
  number of TEAEs considered as IMP-related by the Investigator: 2 TEAEs
  number of TEAEs leading to treatment discontinuation: 5 TEAEs
  number of serious TEAEs: 8 serious TEAEs
  participants with AESI, PT Anaemia: 0 n
  participants with AESI, PT Transaminases increased: 0 n
  participants with AESI, SOC BLOOD AND LYMPHATIC SYSTEM DISORDERS: 0 n
  participants with post-treatment AE leading to death: 1 participant
600 mg, Safety population (N = 47), on Day 11 and Day 15
  deaths up to Day 28: 2 participants
[4]
  Cumulative incidence rate of deaths: 0
  Number of deaths: 0
[5]
  Cumulative incidence rate of deaths: 0.02
  Number of deaths: 1
[6]
  Cumulative incidence rate of deaths: 0.04
  Number of deaths: 1
[7]
  Cumulative incidence rate of deaths: 0.04
  Number of deaths: 0
[8]
  Cumulative incidence rate of deaths: 0.04
  Number of deaths: 0
[9]
  Cumulative incidence rate of deaths: 0.04
  Number of deaths: 0
[10]
  Cumulative incidence rate of deaths: 0.04
  Number of deaths: 0
[11]
  Cumulative incidence rate of deaths: 0.04
  Number of deaths: 0
[12]
  Cumulative incidence rate of deaths: 0.04
  Number of deaths: 0
[13]
  Cumulative incidence rate of deaths: 0.04
  Number of deaths: 0
[14]
  Cumulative incidence rate of deaths: 0.04
  Number of deaths: 0
600 mg, abnormal ALT and AST levels
  participants with post-treatment AESI of transaminase increase: One
600 mg, from an abnormal baseline
  participants with PCSAs of elevated glucose levels considered as a TEAE of hyperglycemia: One
Daily doses over 15 days, severe COVID-19, with standard of care
  overall safety and tolerability as compared to placebo: generally safe and well tolerated
[15]
  Participants with any post-treatment AE: 6 (12.8) n (%)
  Participants with any post-treatment AE leading to death: 1 (2.1) n (%)
  Participants with any post-treatment SAE: 1 (2.1) n (%)
  Participants with any post-treatment related to the compound: 0 n (%)
  Participants with severe post-treatment AE: 1 (2.1) n (%)
[16]
  Participants with any pre-treatment AE: 2 (4.3) n (%)
  Participants with any pre-treatment AE leading to death: 0 n (%)
  Participants with any pre-treatment SAE: 1 (2.1) n (%)
  Participants with severe pre-treatment AE: 1 (2.1) n (%)
